Test results published in patent publication US20250367166A1, “NEXT GENERATION DIPROVOCIMS THAT ACTIVATE THE INNATE AND ADAPTIVE IMMUNE RESPONSE” (The Scripps Research Institute, priority 2022, published 2025).

Columns and labels:
TLR1/TLR2 [1] = target: TLR1/TLR2 (Homo sapiens, UniProt O60603+Q15399); assay: TNF-α release from PMA-differentiated human THP-1 cells (ELISA); conditions: for Emax: THP-1, 4 h, read-out: Efficacy (magnitude) of response versus diprovocim-1 (100%), THP-1; for EC50: read-out: EC50 (nM) (THP-1): EC50 TNF-α release from human THP-1 cells, Table 1;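 on all read-outs here: cells exposed to graded compound concentrations for 4 h, TNF-α quantified in supernatant, LPS as positive and DMSO as negative control, values are duplicate means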
TLR1/TLR2 [2] = target: TLR1/TLR2 (Mus musculus, UniProt Q9EPQ1+Q9QUN7); assay: TNF-α release from thioglycolate-elicited mouse peritoneal macrophages (ELISA); conditions: for Emax: 4 h, read-out: Efficacy (magnitude) of response versus diprovocim-1 (100%), mouse macrophages; for EC50: read-out: EC50 (nM) (mouse): EC50 TNF-α release from mouse macrophages, Table 1
Sequence of TLR1/TLR2 (Mus musculus, UniProt Q9EPQ1+Q9QUN7) (Q9EPQ1 26-795): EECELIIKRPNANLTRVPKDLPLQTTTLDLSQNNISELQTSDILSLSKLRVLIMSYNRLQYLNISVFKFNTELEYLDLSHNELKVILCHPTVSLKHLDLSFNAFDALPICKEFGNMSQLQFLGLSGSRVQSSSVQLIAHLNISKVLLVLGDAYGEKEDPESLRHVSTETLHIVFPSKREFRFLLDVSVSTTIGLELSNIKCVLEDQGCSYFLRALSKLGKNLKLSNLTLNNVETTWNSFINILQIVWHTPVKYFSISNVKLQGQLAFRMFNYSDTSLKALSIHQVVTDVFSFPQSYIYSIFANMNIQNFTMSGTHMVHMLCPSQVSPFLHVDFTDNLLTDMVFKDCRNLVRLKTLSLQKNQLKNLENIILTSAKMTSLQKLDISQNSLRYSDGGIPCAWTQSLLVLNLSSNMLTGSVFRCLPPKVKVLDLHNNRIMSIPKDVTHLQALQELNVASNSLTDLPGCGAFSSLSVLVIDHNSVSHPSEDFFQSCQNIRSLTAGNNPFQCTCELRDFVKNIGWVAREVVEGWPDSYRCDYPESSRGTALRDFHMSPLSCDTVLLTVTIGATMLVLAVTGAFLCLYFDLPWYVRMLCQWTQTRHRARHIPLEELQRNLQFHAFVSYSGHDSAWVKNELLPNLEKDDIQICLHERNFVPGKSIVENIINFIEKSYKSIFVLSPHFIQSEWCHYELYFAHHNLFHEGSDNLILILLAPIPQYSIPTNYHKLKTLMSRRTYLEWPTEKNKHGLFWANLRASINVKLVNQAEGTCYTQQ
Sequence of TLR1/TLR2 (Mus musculus, UniProt Q9EPQ1+Q9QUN7) (Q9QUN7 25-784): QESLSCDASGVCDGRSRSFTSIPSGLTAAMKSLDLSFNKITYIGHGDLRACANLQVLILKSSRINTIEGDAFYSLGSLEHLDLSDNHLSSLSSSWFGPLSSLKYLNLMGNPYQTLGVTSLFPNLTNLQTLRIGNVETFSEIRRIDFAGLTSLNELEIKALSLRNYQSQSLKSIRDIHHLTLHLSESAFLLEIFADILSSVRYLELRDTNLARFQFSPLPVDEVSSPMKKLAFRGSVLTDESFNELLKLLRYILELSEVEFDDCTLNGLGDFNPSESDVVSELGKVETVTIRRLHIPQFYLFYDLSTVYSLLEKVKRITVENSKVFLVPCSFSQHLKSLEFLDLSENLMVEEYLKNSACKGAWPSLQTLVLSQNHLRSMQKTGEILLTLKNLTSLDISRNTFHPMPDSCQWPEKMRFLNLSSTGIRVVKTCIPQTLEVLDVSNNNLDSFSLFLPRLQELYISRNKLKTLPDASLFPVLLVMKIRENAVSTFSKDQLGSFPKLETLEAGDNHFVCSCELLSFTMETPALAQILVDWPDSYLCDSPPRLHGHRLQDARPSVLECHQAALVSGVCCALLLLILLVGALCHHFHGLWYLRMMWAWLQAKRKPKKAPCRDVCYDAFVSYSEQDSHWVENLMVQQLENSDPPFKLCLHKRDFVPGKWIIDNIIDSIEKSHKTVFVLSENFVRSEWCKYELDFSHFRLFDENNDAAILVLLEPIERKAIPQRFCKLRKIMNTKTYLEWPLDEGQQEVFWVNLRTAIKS

Sequence of TLR1/TLR2 (Homo sapiens, UniProt O60603+Q15399) (Q15399 25-786): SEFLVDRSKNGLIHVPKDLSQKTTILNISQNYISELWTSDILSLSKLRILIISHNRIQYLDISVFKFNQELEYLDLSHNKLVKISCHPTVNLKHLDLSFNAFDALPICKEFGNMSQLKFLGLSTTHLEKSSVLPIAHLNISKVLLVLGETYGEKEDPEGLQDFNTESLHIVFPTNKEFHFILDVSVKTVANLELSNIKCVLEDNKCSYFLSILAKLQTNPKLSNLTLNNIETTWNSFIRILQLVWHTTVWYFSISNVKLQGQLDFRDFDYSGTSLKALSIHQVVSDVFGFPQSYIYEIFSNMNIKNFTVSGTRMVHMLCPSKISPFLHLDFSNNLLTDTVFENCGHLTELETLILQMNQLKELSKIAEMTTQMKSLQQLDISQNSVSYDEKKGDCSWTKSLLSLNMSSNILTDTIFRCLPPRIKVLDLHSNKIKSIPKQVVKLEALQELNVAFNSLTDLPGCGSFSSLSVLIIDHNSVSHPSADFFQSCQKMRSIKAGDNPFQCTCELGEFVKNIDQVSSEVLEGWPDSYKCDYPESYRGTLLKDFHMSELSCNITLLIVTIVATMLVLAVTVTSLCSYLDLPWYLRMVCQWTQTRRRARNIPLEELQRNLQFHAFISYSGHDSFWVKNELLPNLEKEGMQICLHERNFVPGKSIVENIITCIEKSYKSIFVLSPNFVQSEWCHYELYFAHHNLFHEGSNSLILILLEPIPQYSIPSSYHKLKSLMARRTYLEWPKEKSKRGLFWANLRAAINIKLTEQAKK
Sequence of TLR1/TLR2 (Homo sapiens, UniProt O60603+Q15399) (O60603 21-784): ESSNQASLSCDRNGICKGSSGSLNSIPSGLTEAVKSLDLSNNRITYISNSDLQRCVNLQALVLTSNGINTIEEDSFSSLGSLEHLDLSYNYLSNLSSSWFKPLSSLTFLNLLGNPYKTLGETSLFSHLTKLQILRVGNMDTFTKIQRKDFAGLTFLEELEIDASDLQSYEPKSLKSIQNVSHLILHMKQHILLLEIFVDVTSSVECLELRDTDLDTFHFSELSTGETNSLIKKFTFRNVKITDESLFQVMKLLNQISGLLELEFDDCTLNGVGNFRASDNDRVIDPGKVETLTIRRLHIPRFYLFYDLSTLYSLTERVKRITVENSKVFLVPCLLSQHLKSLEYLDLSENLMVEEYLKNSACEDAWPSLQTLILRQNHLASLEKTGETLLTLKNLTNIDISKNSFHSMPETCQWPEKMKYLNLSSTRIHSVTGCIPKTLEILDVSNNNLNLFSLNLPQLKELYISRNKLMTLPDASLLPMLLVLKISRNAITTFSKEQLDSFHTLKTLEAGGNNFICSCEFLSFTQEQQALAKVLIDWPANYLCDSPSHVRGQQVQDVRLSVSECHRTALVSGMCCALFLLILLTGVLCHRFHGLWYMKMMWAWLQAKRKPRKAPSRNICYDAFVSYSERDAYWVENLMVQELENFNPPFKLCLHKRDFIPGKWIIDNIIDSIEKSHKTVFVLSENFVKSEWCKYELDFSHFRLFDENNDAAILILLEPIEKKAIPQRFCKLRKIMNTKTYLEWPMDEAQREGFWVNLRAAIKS

Structure (SMILES) | Emax (TLR1/TLR2 [1]) [%] | EC50 (TLR1/TLR2 [1]) [nM] | Emax (TLR1/TLR2 [2]) [%] | EC50 (TLR1/TLR2 [2]) [nM]
CC(C)(C)OC(=O)CNC(=O)CCCCCCCCCCCNC(=O)[C@@H]1CN(C(=O)c2ccc(C(=O)N3C[C@@H](C(=O)N[C@H]4C[C@@H]4c4ccccc4)[C@H](C(=O)N[C@H]4C[C@@H]4c4ccccc4)C3)cc2)C[C@H]1C(=O)N[C@H]1C[C@@H]1c1ccccc1 [Compound 14, tert-Butyl (12-((3S,4S)-1-(4-((3S,4S)-3,4-bis(((1S,2R)-2-phenylcyclopropyl)carbamoyl)-pyrrolidine-1-carbonyl)-benzoyl)-4-(((1S,2R)-2-phenylcyclopropyl)carbamoyl)pyrrolidine-3-carboxamido)dodecanoyl)glycinate] | 100 | 20 | 70 | 25
NCCCCCCCCCCCCNC(=O)[C@@H]1CN(C(=O)c2ccc(C(=O)N3C[C@@H](C(=O)N[C@H]4C[C@@H]4c4ccccc4)[C@H](C(=O)N[C@H]4C[C@@H]4c4ccccc4)C3)cc2)C[C@H]1C(=O)N[C@H]1C[C@@H]1c1ccccc1 [Compound 16, (3S,4S)—N^3-(12-Aminododecyl)-1-(4-((3S,4S)-3,4-bis-(((1S,2R)-2-phenylcyclopropyl)carbamoyl)-pyrrolidine-1-carbonyl)benzoyl)-N^4-((1S,2R)-2-phenylcyclopropyl)-pyrrolidine-3,4-dicarboxamide] | 140 | 0.8 | 130 | 10
CC(C)(C)OC(=O)NCCCCCCCCCCCCNC(=O)[C@@H]1CN(C(=O)c2ccc(C(=O)N3C[C@@H](C(=O)N[C@H]4C[C@@H]4c4ccccc4)[C@H](C(=O)N[C@H]4C[C@@H]4c4ccccc4)C3)cc2)C[C@H]1C(=O)N[C@H]1C[C@@H]1c1ccccc1 [Compound 17, tert-Butyl (12-((3S,4S)-1-(4-((3S,4S)-3,4-bis(((1S,2R)-2-phenylcyclopropyl)carbamoyl)-pyrrolidine-1-carbonyl)benzoyl)-4-(((1S,2R)-2-phenylcyclopropyl)carbamoyl)pyrrolidine-3-carboxamido)dodecyl)carbamate] | 70 | 0.18 | 120 | 2.8

Results, then the molecule that gave them:

Emax (TLR1/TLR2 [1]) [%] | EC50 (TLR1/TLR2 [1]) [nM] | Emax (TLR1/TLR2 [2]) [%] | EC50 (TLR1/TLR2 [2]) [nM] | Structure (SMILES)
120 | 1 | 150 | 60 | CNC(=O)CCCCCCCCCCCNC(=O)[C@@H]1CN(C(=O)c2ccc(C(=O)N3C[C@@H](C(=O)N[C@H]4C[C@@H]4c4ccccc4)[C@H](C(=O)N[C@H]4C[C@@H]4c4ccccc4)C3)cc2)C[C@H]1C(=O)N[C@H]1C[C@@H]1c1ccccc1 [Compound 13, (3S,4S)-1-(4-((3S,4S)-3,4-Bis(((1S,2R)-2-phenylcyclo-propyl)carbamoyl)pyrrolidine-1-carbonyl)-benzoyl)-N^3-(12-(methylamino)-12-oxododecyl)-N^4-((1S,2R)-2-phenyl-cyclopropyl)pyrrolidine-3,4-dicarboxamide]
110 | 200 | 30 | 1200 | O=C(O)CNC(=O)CCCCCCCCCCCNC(=O)[C@@H]1CN(C(=O)c2ccc(C(=O)N3C[C@@H](C(=O)N[C@H]4C[C@@H]4c4ccccc4)[C@H](C(=O)N[C@H]4C[C@@H]4c4ccccc4)C3)cc2)C[C@H]1C(=O)N[C@H]1C[C@@H]1c1ccccc1 [Compound 15, (12-((3S,4S)-1-(4-((3S,4S)-3,4-Bis(((1S,2R)-2-phenylcyclopropyl)carbamoyl)pyrrolidine-1-carbonyl)benzoyl)-4-(((1S,2R)-2-phenylcyclopropyl)carbamoyl)pyrrolidine-3-carboxamido)-dodecanoyl)glycine]
